Structures can show the parent of a compound that is named as a salt.
Assays:
Format in all cases: in vivo
mice [1] = assay: Hot plate test (topical ointment); settings: hot plate 55 degrees Celsius, 2 percent w/w ointment topically 5 min before, cut-off 60 seconds, mean±SEM
Protocol: (§1) Example 3 illustrates the analgesic activity of the esters evaluated using models of providing thermal stimuli (hot plate) and chemical stimuli (formalin, capsaicin and allyl isothiocyanate) to the subjects i.e., mice.
TEST 1: Hot plate test: The hot plate test (HPT) is often used for investigation of a noxious stimulus (heat) in models of acute pain. Classically, the latency of the animal's response to the stimulus is recorded as the dependent variable.
All compounds, including BZC, were applied topically in an ointment (2 percent weight by weight based on the total weight of formulation) prepared according to the procedure described in Example 1. The ointments were applied both to the palmar and plantar surfaces of the paws of the mice by gently rubbing 5 min before analgesic activity evaluation. A corresponding amount of the ointment base were similarly applied for mice used as control animals. The mice were placed on a hot plate maintained at 55 degrees Celsius, one at a time. In this experiment, latency to respond to the heat stimulus was determined by the amount of time (in seconds) it took for a mouse to lick one of its paws. Cut-off time was fixed at 60 seconds to minimize the tissue damage that occurs during prolonged contact with heated surface. All values are expressed as the mean±standard errors of the mean (SEM) in all the tables.

mice [2] = assay: Capsaicin test (topical ointment); settings: capsaicin 6 micrograms/paw s.c., 2 percent w/w ointment topically 5 min before, observed 5 minutes, mean±SEM
From the text: as §1
TEST 2: Capsaicin test: Capsaicin (8-methyl-N-vanillyl-6-nonenamide), the pungent substance obtained from hot red pepper, is used to evaluate analgesic activity on mice, for compounds synthesized herein.
All compounds, including BZC, were applied topically as an ointment (2 percent weight by weight based on the total weight of formulation) prepared according to the procedure described in Example 2. The ointments were applied to the affected paws' surface by gently rubbing 5 min before analgesic activity evaluation. A corresponding amount of the ointment base were similarly applied for mice used as control animals. To evaluate analgesic activity 20 microliter of capsaicin solution in 1,2-propylene glycol (6 micrograms/paw) was injected subcutaneously under the skin of the dorsal surface of the hindpaw. Animals were observed individually for 5 minutes after capsaicin administration. The amount of time that mice spent licking the injected paw was recorded and considered as an index of pain.

mice [3] = assay: Formalin test, early phase (topical ointment); settings: 20 microliter 2 percent formalin s.c., 2 percent w/w ointment topically 5 minutes before, 0 to 5 min (early phase), mean±SEM
Protocol: as §1
TEST 3: Formalin test: The formalin test was used to determine the potential analgesic effects of compounds for states of persistent pain in which tissue damage occurs. The nociceptive response produced by formalin is biphasic: an early response (0 to 5 min after injection) and a late response (20 to 30 minutes after injection). These two phases can be distinguished pharmacologically: phase 1 is supposed to represent a direct chemical stimulation of nociceptors while phase 2 is thought to involve inflammation. Aiming at assessment precisely response caused by a burst of activity from pain fibers we measured the licking time as an indicator of nociception only during the first (early) phase. All compounds, including BZC, were applied topically in an ointment (2 percent weight by weight based on the total weight of formulation) prepared according to the procedure described in Example 2. The ointments were applied to the affected paws' surface by gently rubbing 5 minutes before analgesic activity evaluation. A corresponding amount of the ointment base were similarly applied for mice used as control animals. After that, 20 microliter of a 2 percent formalin solution in 0.9 percent NaCl (w/w) was injected subcutaneously into the dorsal surface of the hindpaw. The animal then was placed in an individual plexiglass cage. The time spent by the animal in licking the injected paw was measured from 0 to 5 min (early phase) after formalin administration and was considered as an indicator of pain response.

mice [4] = assay: Allyl isothiocyanate (AITC, TRPA1 agonist) test (topical ointment); settings: 20 microliters 0.5 percent AITC s.c., 2 percent w/w ointment topically 5 min before, observed 10 minutes, mean±SEM
Protocol: as §1
TEST 4: Allyl isothiocyanate test: The analgesic activity was evaluated by a model of chemical stimulus with the use of TRPA1 agonist—allyl isothiocyanate (AITC).
20 Microliters of 0.5 percent (w/w in 1,2-propylene glycol) AITC solution was injected subcutaneously under the skin of the dorsal surface of the right hindpaw. All compounds, including BZC, were applied topically in an ointment (2 percent weight by weight based on the total weight of formulation) prepared according to the procedure described in Example 2. The ointments were applied to the affected paws' surface by gently rubbing 5 min before analgesic activity evaluation. A corresponding amount of the ointment base were similarly applied for mice used as control animals. AITC dose was selected based on our preliminary trials and from literature citations. Animals were observed individually for 10 minutes after AITC administration. The amount of time that mice spent licking the injected paw (reaction time in seconds) was recorded and considered as an index of pain.

rat paw = assay: AITC-induced rat paw edema assay; settings: for ability to decrease the AITC-induced inflammatory state compared with ibuprofen: 2 percent w/w ointment topically; for time of inflammation maximum following AITC injection: 2 percent w/w ointment, vehicle edema maximum at 3 hours; for level of AITC-induced edema (volume of affected paw): AITC 100 microgram per paw, 2 percent w/w ointment topically 30 minutes before and at each time point, percentage of the control
Protocol: One-way analysis of variance (ANOVA) followed by Tukey's post hoc comparison.
The anti-inflammatory effect was determined using an AITC-induced rat paw edema assay. […] The ointments were additionally applied by gently rubbing on the affected paw at each time point.

| SMILES | Reaction time (latency to lick a paw) (mice [1]; listed as COMPOUND 2, hydrochloride) | Reaction time (latency to lick a paw) (mice [1]; listed as compound 2, hydrochloride) | Licking time (mice [2]) | Licking time (mice [3]) | Licking time (mice [4]) | ability to decrease the AITC-induced inflammatory state compared with ibuprofen (rat paw) | time of inflammation maximum following AITC injection (rat paw) | level of AITC-induced edema (volume of affected paw) (rat paw) | Reaction time (latency to lick a paw) (mice [1]; listed as COMPOUND 1, hydrochloride) | Reaction time (latency to lick a paw) (mice [1]; listed as compound 1, hydrochloride) | Reaction time (latency to lick a paw) (mice [1]; listed as COMPOUND 3, hydrochloride) | Reaction time (latency to lick a paw) (mice [1]; listed as compound 3, hydrochloride) | Reaction time (latency to lick a paw) (mice [1]; listed as COMPOUND 4, hydrochloride) | Reaction time (latency to lick a paw) (mice [1]; listed as compound 4, hydrochloride) | Reaction time (latency to lick a paw) (mice [1]) | Reaction time (latency to lick a paw) (mice [1]; listed as BZC) |
| --- | --- | --- | --- | --- | --- | --- | --- | --- | --- | --- | --- | --- | --- | --- | --- | --- |
| Cc1ccc(C(C)C)c(OC(=O)CCCN)c1.Cl [Compound 2, 2-isopropyl-5-methylphenyl 4-aminobutyrate hydrochloride] | 21.3 ± 0.9 s | about 21.3 sec | 19.7 ± 2.6 s | 52.2 ± 6.6 s | 20.3 ± 5.8 s | exceed reference drug ibuprofen | about 1.5 hours | 112% | – | – | – | – | – | – | – | – |
| CC(C)[C@@H]1CC[C@@H](C)C[C@H]1OC(=O)CCCN [Compound 1, (1R,2S,5R)-2-isopropyl-5-methylcyclohexyl-4-aminobutyrate hydrochloride] | – | – | 4.3 ± 0.9 s | 30.3 ± 7.4 s | 2.7 ± 0.3 s | exceed reference drug ibuprofen | about 1.5 hours | 136% | 30.2 ± 2.6 s | about 30.2 sec | – | – | – | – | – | – |
| CC(C)Cc1ccc(C(C)C(=O)O)cc1 (stereo not drawn) [ibuprofen, reference compound] | – | – | – | – | – | – | about 1.5 hours | – | – | – | – | – | – | – | – | – |
| Cc1ccc(C(C)C)cc1OC(=O)CCCN.Cl [Compound 3, 5-isopropyl-2-methylphenyl 4-aminobutyrate hydrochloride] | – | – | 12.0 ± 1.2 s | 31.1 ± 8.3 s | 22.8 ± 4.3 s | relatively comparable effects with ibuprofen | about 1.5 hours | – | – | – | 19.3 ± 3.8 s | about 19.3 sec | – | – | – | – |
| COc1ccccc1OC(=O)CCCN.Cl [Compound 4, 2-methoxylphenyl 4-aminobutyrate hydrochloride] | – | – | 24.3 ± 3.3 s | 47.6 ± 9.8 s | 25.3 ± 1.5 s | relatively comparable effects with ibuprofen | about 1.5 hours | – | – | – | – | – | 16.5 ± 3.7 s | about 16.5 sec | – | – |
| CCOC(=O)c1ccc(N)cc1 [Benzocaine, benzocaine, reference compound] | – | – | 28.7 ± 6.6 s | 36.3 ± 2.4 s | 48.0 ± 2.0 s | – | – | – | – | – | – | – | – | – | 18.3 ± 0.9 s | about 18.3 sec |

From patent US20180008717A1, “PHARMACEUTICAL COMPOSITION WITH ANALGESIC AND ANTI-INFLAMMATORY ACTIVITY” (priority 2016, published 2018)
